# Source: article PMC9995496, “A screen for MeCP2-TBL1 interaction inhibitors using a luminescence-based assay” (Scientific Reports, 2023)
# Molecular target: T1, MeCP2-TBL1 interaction (MeCP2-SmBiT / TBL1-LgBiT) (Mus musculus, UniProt Q9QXE7)
# T1 construct: expressed in transfected cells; crude lysate used as a cell-free assay
# T1 sequence (Q9QXE7 166-527): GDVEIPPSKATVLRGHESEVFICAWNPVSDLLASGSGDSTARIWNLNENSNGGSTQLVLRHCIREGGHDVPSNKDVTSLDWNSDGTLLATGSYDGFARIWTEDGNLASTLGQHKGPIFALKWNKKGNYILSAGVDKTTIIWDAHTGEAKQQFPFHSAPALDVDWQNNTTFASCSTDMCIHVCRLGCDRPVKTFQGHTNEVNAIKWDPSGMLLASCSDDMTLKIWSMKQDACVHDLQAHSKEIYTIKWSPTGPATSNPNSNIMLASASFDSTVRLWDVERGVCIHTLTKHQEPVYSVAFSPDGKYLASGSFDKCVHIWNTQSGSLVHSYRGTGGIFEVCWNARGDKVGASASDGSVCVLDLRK
# Experiment: MeCP2-TBL1 NanoLuc luciferase complementation assay (cell-free, extracts of transfected HEK293 cells);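 note: each compound tested at 20 µM final concentration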
# Type: binding, human
# Details: primary screen of Asinex library, single well per compound
# Summary of the method: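 Cell-free split NanoLuc: lysate of HEK293 cells co-expressing the MeCP2 C-terminal half-SmBiT and TBL1 WD domain-LgBiT, mixed 1:1 with furimazine. After 30 min at room temperature, luminescence was plate-median normalized.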
row,Inhibition percent,SMILES
1,-2.77,Cc1nccn1Cc1ccccc1C(=O)N1C[C@@H](c2cccc(F)c2)[C@@]2(CCCCC(=O)N2)C1 [BDH_32372714]
2,0.44,COCC(=O)N1CCC(C)(C(=O)N2CCCC2c2ccnc(-c3cccc(Cl)c3)n2)CC1 (stereo not shown) [BDH_32373816]
3,1.12,O=C(c1ccccc1Cn1ccnc1)N1CCOCC2(C1)CN(c1ccc(Cl)cc1)C(=O)O2 (stereo not shown) [BDH_32374184]
4,6.08,O=C(COc1ncnc2ccccc12)N1CCC[C@@]2(C[C@@H](Oc3ccc(F)c(Cl)c3)CO2)C1 [BDH_33516387]
5,-5.26,Cc1c[nH]c(-c2nccnc2CC2CCCN(C(=O)c3ccnc(Cc4cccc(F)c4)c3)C2)n1 (stereo not shown) [BDH_33521378]

# Same assay, conditions: primary screen of the Asinex library, sheet "Sargen output Asinex library", one well per compound
row,SMILES,Inhibition percent
1,COc1ccc(C2(C(=O)N3CCC4(CC3)CC(Oc3ccccc3F)CO4)CCOCC2)cc1 (stereo not shown) [BDH_32372513],-1.24%
2,O=C1CCCN1CCOc1ccccc1C(=O)N1CCCC(Cc2cn3ccnc3cn2)CC1 (stereo not shown) [BDH_32372856],-2.49%
3,CNC(=O)c1cccc(C2CN(C(=O)c3ccc(OCc4ccccn4)c(OC)c3)CCN2C)c1 (stereo not shown) [BDH_32373002],4.71%
4,Cn1cc(-c2cc(C(=O)N3CCCC(c4cccc(-c5cccc(C(N)=O)c5)n4)C3)ccn2)cn1 (stereo not shown) [BDH_32374050],-6.35%
5,Cn1ccc(C(=O)Nc2ccccc2C(=O)N2CCC3(CN(Cc4ccccc4)C(=O)O3)C2)n1 (stereo not shown) [BDH_32374198],-4.02%
6,COCC(=O)N1CCC(C)(C(=O)N2CCC[C@]3(C[C@@H](Oc4cccc(F)c4)CO3)C2)CC1 [BDH_32375031],-4.50%
7,C[C@@]12C[C@H]3[C@H](Cc4ccccc4)N[C@@H]1CCCC[C@@H]2N3C(=O)c1ccnc(Cc2ccccc2)c1 [BDH_33392602],3.55%
8,COc1cccc(-c2cc(C(=O)N3CCC[C@@]4(C[C@@H](Oc5cccc(Cl)c5)CO4)C3)[nH]n2)c1 [BDH_33516566],6.38%
9,O=C(c1cc(-c2cccc(F)c2)no1)N1CCC[C@@]2(C[C@@H](Oc3ccccc3F)CO2)C1 [BDH_33517958],4.74%
10,COc1ccc([C@H]2CN(C)[C@@H]3CCN(C(=O)c4ccnc(Cc5ccccc5OC)c4)C[C@H]23)cc1 [BDH_33520255],-0.37%

# Second part, the molecule after the results:
row,Inhibition percent,SMILES
1,-4.74%,COc1ccccc1Cc1ccc(C(=O)N2CCCC2c2cncc(-c3nc(C)c[nH]3)n2)cn1 (stereo not shown) [BDH_33521296]
2,-1.25%,COc1ccccc1Cc1ccc(C(=O)N2CCCC2c2cccc(-c3cncn3C)n2)cn1 (stereo not shown) [BDH_33521317]
3,-2.90%,Cc1c[nH]c(-c2cncc(C3CCCN(C(=O)c4ccnc(Cc5cccc(F)c5)c4)C3)n2)n1 (stereo not shown) [BDH_33521385]
4,-0.17%,NC(=O)c1cc(CC2CCCN(C(=O)c3ccnc(Cc4ccccc4)c3)CC2)ncn1 (stereo not shown) [BDH_33521416]

# Same assay, conditions: primary screen of the Asinex library, sheet "Sargen output Asinex library", one well per compound, Batch Ref. 1
row,SMILES,Inhibition percent
1,CC1(C(=O)N2CCOCC(Cc3ccc4ncccc4c3)C2)CCN(C(=O)c2ccccc2)CC1 (stereo not shown) [BDH_32372082],0.77%
2,CN1C(=O)C2(CCN(C(=O)C3(c4ccccc4)CCOCC3)CC2)CC1Cc1ccccc1 (stereo not shown) [BDH_32374590],0.40%
3,C[C@]12C[C@@H](Cc3ccccc3)N(C(=O)c3cccc(CN4CCCC4=O)c3)[C@H]1CCCC(=O)N2 [BDH_32374892],-1.59%
4,CC(C)CN1C(=O)C2(CCN(C(=O)Cn3cccnc3=O)CC2)CC1Cc1ccc(F)cc1 (stereo not shown) [BDH_33517008],-0.88%
5,COc1ccccc1Cc1ccc(C(=O)N2CCCC2c2cncc(-c3nccn3C)n2)cn1 (stereo not shown) [BDH_33521295],-3.44%

# Results, then the molecule that gave them:
row,Inhibition percent,SMILES
1,0.21%,COc1ccccc1Cc1ccc(C(=O)N2CCC(c3cccc(-c4cncn4C)n3)CC2)cn1 [BDH_33521315]
2,-0.09%,CNC(=O)c1cnn2c(C3CCCN(C(=O)c4ccnc(Cc5cccc(F)c5)c4)C3)ccnc12 (stereo not shown) [BDH_33521351]
3,-2.61%,Cn1ccnc1-c1nccnc1C1CCN(C(=O)c2ccnc(Cc3cccc(F)c3)c2)CC1 [BDH_33521386]
4,-0.87%,NC(=O)c1cnn2c(C3CCCCN3C(=O)c3ccnc(Cc4ccccc4)c3)ccnc12 (stereo not shown) [BDH_33521422]
